Assay results as given in patent US10544143B2, “4-azaindole compounds” (BRISTOL-MYERS SQUIBB COMPANY, priority 2017, dated 2020).

Tests used:
human TLR8 = human TLR8 (Homo sapiens (Human), UniProt Q9NR97); test: TLR8 inhibition reporter assay (HEK-Blue SEAP); details: read-out: TLR8 IC50; HEK-Blue cells overexpressing human TLR8, R848 15.9 μM stimulation, SEAP reporter;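 also: SEAP driven by IFN-β minimal promoter carrying NF-κB and AP-1 sites, compounds dosed 0.05 nM to 50 µM for 22 h, inhibition scaled between agonist-plus-DMSO and reference-inhibitor wells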
human TLR9 = human TLR9 (Homo sapiens (Human), UniProt Q9NR96); test: TLR9 inhibition reporter assay (HEK-Blue SEAP); details: read-out: TLR9 IC50; HEK-Blue cells overexpressing human TLR9, ODN2006 5 nM stimulation, SEAP reporter;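 also: SEAP driven by an IFN-β minimal promoter with NF-κB and AP-1 sites, read after 22 h, compounds dosed 0.05 nM–50 µM, inhibition scaled between agonist plus DMSO and reference-inhibitor wells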
human TLR7 = human TLR7 (Homo sapiens (Human), UniProt Q9NYK1); test: TLR7 inhibition reporter assay (HEK-Blue SEAP); assay type: cell-based; details: HEK-Blue cells overexpressing human TLR7, gardiquimod 7.5 μM stimulation, SEAP reporter
Chain of human TLR7 (Q9NYK1 27-1049): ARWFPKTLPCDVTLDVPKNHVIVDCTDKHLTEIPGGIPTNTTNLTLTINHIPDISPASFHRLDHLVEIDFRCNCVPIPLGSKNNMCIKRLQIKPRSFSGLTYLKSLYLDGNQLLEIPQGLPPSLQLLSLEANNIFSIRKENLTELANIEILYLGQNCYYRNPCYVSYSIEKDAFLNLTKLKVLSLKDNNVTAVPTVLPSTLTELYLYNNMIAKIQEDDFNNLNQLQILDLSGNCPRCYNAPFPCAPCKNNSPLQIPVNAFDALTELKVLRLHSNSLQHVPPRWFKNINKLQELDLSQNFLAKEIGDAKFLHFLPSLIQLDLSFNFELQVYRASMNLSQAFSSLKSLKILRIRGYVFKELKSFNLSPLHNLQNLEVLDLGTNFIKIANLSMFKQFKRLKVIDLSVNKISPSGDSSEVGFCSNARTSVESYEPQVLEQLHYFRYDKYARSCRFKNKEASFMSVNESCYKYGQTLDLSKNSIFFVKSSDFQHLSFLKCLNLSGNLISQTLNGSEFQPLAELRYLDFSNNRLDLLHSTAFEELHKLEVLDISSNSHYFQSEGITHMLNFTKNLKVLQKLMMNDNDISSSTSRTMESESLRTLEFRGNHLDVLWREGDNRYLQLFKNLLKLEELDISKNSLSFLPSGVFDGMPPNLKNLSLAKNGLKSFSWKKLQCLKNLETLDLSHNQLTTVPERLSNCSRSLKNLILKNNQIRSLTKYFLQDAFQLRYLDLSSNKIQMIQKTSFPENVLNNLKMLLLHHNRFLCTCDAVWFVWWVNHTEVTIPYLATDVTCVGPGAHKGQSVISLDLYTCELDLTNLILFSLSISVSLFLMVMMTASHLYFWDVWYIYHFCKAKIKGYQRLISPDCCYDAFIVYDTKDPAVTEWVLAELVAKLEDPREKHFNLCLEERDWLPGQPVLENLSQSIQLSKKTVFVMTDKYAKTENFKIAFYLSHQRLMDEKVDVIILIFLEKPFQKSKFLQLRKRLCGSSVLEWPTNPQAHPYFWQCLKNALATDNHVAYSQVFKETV

Chain of human TLR9 (Q9NR96 26-1032): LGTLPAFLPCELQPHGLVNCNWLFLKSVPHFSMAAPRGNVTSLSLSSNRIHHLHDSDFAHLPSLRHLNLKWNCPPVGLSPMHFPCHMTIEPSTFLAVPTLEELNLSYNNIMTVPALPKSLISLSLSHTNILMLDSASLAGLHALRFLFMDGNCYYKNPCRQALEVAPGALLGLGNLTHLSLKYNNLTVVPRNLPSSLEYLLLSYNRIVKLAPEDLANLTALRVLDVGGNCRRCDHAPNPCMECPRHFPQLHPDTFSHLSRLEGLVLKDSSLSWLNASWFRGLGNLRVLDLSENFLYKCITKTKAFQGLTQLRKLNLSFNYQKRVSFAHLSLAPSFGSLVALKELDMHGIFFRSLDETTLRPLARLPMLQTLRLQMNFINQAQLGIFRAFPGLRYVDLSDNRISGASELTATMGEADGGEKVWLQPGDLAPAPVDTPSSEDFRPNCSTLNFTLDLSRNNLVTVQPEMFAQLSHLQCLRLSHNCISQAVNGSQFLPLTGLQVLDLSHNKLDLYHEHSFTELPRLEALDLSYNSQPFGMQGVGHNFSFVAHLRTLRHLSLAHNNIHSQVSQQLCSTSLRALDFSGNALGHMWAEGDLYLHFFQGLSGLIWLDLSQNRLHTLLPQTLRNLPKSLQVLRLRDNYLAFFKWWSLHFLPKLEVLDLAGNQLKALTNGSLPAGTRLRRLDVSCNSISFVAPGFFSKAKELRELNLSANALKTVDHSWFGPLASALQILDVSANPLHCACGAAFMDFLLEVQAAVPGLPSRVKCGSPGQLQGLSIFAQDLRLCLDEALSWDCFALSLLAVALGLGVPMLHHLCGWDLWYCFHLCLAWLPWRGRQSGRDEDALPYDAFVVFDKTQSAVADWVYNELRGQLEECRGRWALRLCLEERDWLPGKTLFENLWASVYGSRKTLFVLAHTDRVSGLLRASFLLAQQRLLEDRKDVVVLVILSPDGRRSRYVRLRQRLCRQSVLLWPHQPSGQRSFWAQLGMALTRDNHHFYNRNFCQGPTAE
Chain of human TLR8 (Q9NR97 27-1041): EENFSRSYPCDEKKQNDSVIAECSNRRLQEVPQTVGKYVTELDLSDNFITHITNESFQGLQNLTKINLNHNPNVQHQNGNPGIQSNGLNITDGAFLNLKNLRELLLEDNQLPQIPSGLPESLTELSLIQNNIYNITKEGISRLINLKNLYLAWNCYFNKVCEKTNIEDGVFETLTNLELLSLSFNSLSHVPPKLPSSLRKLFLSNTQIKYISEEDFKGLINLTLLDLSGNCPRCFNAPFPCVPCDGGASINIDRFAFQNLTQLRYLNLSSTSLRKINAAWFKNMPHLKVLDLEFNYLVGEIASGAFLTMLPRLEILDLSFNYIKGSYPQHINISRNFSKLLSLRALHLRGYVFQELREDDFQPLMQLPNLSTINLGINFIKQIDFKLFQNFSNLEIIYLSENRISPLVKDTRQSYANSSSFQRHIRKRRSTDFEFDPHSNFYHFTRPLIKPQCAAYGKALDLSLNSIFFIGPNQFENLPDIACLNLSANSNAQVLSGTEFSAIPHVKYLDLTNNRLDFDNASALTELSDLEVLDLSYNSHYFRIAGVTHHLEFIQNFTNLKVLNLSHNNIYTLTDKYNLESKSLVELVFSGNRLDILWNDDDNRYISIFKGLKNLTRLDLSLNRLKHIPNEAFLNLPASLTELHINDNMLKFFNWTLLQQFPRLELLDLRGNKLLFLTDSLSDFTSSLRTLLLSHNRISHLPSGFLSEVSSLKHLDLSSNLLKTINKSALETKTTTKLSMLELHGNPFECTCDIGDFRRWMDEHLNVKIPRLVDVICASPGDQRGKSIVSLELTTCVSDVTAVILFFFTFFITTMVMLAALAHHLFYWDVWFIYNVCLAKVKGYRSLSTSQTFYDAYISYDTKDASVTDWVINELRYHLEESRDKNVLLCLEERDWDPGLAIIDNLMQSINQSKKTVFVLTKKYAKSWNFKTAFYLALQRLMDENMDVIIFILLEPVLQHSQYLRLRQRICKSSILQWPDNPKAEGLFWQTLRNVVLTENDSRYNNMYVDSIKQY

Row | IC50 (human TLR8) [nM] | IC50 (human TLR9) [nM] | IC50 (human TLR7) [nM] | SMILES
1 | 0.15 | 9240 | 3.9 | Cc1c(-c2[nH]c3ccc(N4CCN(CC(C)(C)O)CC4)nc3c2C(C)C)cn2ncnc2c1C [Example 105, 1-(4-(2-(7,8-dimethyl-[1,2,4]triazolo[1,5-a]pyridin-6-yl)-3-isopropyl-1H-pyrrolo[3,2-b]pyridin-5-yl)piperazin-1-yl)-2-methylpropan-2-ol]
2 | 0.28 | 7780 | 2.2 | COc1cc(-c2[nH]c3ccc(N4CCN(CC(C)(C)O)CC4)nc3c2C(C)C)cn2ncnc12 [Example 106]
3 | 0.37 | 5630 | 2.2 | COc1cc(-c2[nH]c3ccc(N4CCN(CC5CCOC5)CC4)nc3c2C(C)C)cn2ncnc12 (stereo not drawn) [Example 107]
4 | 0.99 | 3510 | 2.5 | COc1cc(-c2[nH]c3ccc(N4CCN(C5CCC5)CC4)nc3c2C(C)C)cn2ncnc12 [Example 108]
5 | 1.3 | 8010 | 3.6 | COc1cc(-c2[nH]c3ccc(N4CCN(CC(C)C)CC4)nc3c2C(C)C)cn2ncnc12 [Example 109]
6 | 0.76 | 4540 | 1.9 | COc1cc(-c2[nH]c3ccc(N4CCN(CCC(C)C)CC4)nc3c2C(C)C)cn2ncnc12 [Example 110]
7 | 1.2 | 6010 | 2.2 | COCC(C)N1CCN(c2ccc3[nH]c(-c4cc(OC)c5ncnn5c4)c(C(C)C)c3n2)CC1 (stereo not drawn) [Example 112]
8 | 0.95 | 3360 | 1.4 | COc1cc(-c2[nH]c3ccc(N4CCN(C5CCC(O)CC5)CC4)nc3c2C(C)C)cn2ncnc12 (stereo not drawn) [Example 113]
9 | 1.8 | 7590 | 4.7 | COc1cc(-c2[nH]c3ccc(N4CCN(CCC(C)(C)C)CC4)nc3c2C(C)C)cn2ncnc12 [Example 114]
10 | 0.49 | 3480 | 1.2 | CCCCN1CCN(c2ccc3[nH]c(-c4cc(OC)c5ncnn5c4)c(C(C)C)c3n2)CC1 [Example 115]
11 | 5 | 35600 | 9.7 | COc1cc(-c2[nH]c3ccc(N4CCN(CCC(F)(F)F)CC4)nc3c2C(C)C)cn2ncnc12 [Example 116]
12 | 0.81 | 5640 | 1.4 | COc1cc(-c2[nH]c3ccc(N4CCN(C(C)CO)CC4)nc3c2C(C)C)cn2ncnc12 (stereo not drawn) [Example 117]
13 | 0.86 | 5580 | 1.8 | COc1cc(-c2[nH]c3ccc(N4CCN(C(C)CCO)CC4)nc3c2C(C)C)cn2ncnc12 (stereo not drawn) [Example 118]
14 | 0.96 | 14100 | 1.8 | CCN1CCN(c2ccc3[nH]c(-c4cc(OC)c5ncnn5c4)c(C(C)C)c3n2)CC1 [Example 119]
15 | 0.6 | 5490 | 2.3 | COc1cc(-c2[nH]c3ccc(N4CCN(CC5CC5)CC4)nc3c2C(C)C)cn2ncnc12 [Example 120]
16 | 0.8 | 6350 | 3.4 | COc1cc(-c2[nH]c3ccc(N4CCN(C5CCN(C(C)=O)CC5)CC4)nc3c2C(C)C)cn2ncnc12 [Example 121]
17 | 1.1 | 7250 | 1.7 | CC(C)c1c(-c2cn(C)c3ncncc23)[nH]c2ccc(N3CCNCC3)nc12 [Example 122]
18 | 6.3 | 8650 | 1.9 | CC(C)c1c(-c2cn(C)c3ncncc23)[nH]c2ccc(N3CCN(C(=O)CN(C)C)CC3)nc12 [Example 123]
19 | 4.7 | 5790 | 1.2 | CC(C)c1c(-c2cn(C)c3ncncc23)[nH]c2ccc(N3CCN(C(=O)CCN(C)C)CC3)nc12 [Example 124]
20 | 0.66 | 6540 | 2.6 | CC(C)c1c(-c2cn(C)c3ncncc23)[nH]c2ccc(N3CCN(C)CC3)nc12 [Example 125]
21 | 1.5 | 6120 | 5.9 | CC(C)c1c(-c2cn(C)c3ncncc23)[nH]c2ccc(N3CCN(C(C)C)CC3)nc12 [Example 126]
22 | 0.48 | 5900 | 4.6 | CC(C)c1c(-c2cn(C)c3ncncc23)[nH]c2ccc(N3CCN(C4CCOCC4)CC3)nc12 [Example 127]
23 | 2.6 | 35400 | 5.4 | COc1cc(-c2[nH]c3ccc(N4CCN(CC(=O)N(C)C)CC4)nc3c2C(C)C)cn2ncnc12 [Example 128]
24 | 1.3 | 22800 | 6.7 | COc1cc(-c2[nH]c3ccc(N4CCN(Cc5cn(C)nn5)CC4)nc3c2C(C)C)cn2ncnc12 [Example 129]
25 | 4.7 | > 50000 | 4.3 | COc1cc(-c2[nH]c3ccc(N4CCN(CC(N)=O)CC4)nc3c2C(C)C)cn2ncnc12 [Example 130]

Row | IC50 (human TLR8) [nM] | IC50 (human TLR9) [nM] | IC50 (human TLR7) [nM] | SMILES
26 | 0.63 | 8570 | 3.3 | COCCN1CCN(c2ccc3[nH]c(-c4cc(OC)c5ncnn5c4)c(C(C)C)c3n2)CC1 [Example 131]
27 | 0.51 | 7390 | 2.8 | COc1cc(-c2[nH]c3ccc(N4CCN(CCCS(C)(=O)=O)CC4)nc3c2C(C)C)cn2ncnc12 [Example 132]
28 | 1.4 | > 50000 | 4.3 | COc1cc(-c2[nH]c3ccc(N4CCN(C5CCS(=O)(=O)CC5)CC4)nc3c2C(C)C)cn2ncnc12 [Example 133]
29 | 1.1 | 26100 | 3.7 | COc1cc(-c2[nH]c3ccc(N4CCN(CCNS(C)(=O)=O)CC4)nc3c2C(C)C)cn2ncnc12 [Example 134]
30 | 1.6 | 13200 | 4.7 | COc1cc(-c2[nH]c3ccc(N4CCN(CCCC(F)(F)F)CC4)nc3c2C(C)C)cn2ncnc12 [Example 135]
31 | 0.79 | 8220 | 5.7 | COc1cc(-c2[nH]c3ccc(N4CCN(CCC(=O)N(C)C)CC4)nc3c2C(C)C)cn2ncnc12 [Example 136]
32 | 1.3 | 8450 | 5.6 | COc1cc(-c2[nH]c3ccc(N4CCN(CCC(N)=O)CC4)nc3c2C(C)C)cn2ncnc12 [Example 137]
33 | 4.6 | > 50000 | 11 | CNC(=O)CN1CCN(c2ccc3[nH]c(-c4cc(OC)c5ncnn5c4)c(C(C)C)c3n2)CC1 [Example 138]
34 | 14 | > 50000 | 37 | Cc1c(-c2[nH]c3ccc(N4CCNCC4=O)nc3c2C(C)C)cn2ncnc2c1C [Example 139]
35 | 186 | > 50000 | 127 | Cc1c(-c2[nH]c3ccc(N4CCN(C5COC5)CC4=O)nc3c2C(C)C)cn2ncnc2c1C [Example 140]
36 | 148 | > 50000 | 134 | Cc1c(-c2[nH]c3ccc(N4CCN(CC(=O)N(C)C)CC4=O)nc3c2C(C)C)cn2ncnc2c1C [Example 141]
37 | 45 | > 50000 | 107 | Cc1c(-c2[nH]c3ccc(N4CCN(C)CC4=O)nc3c2C(C)C)cn2ncnc2c1C [Example 142]
38 | 4.5 | > 50000 | 7.8 | Cc1c(-c2[nH]c3ccc(N4CCN(C(=O)CN5CCOCC5)CC4)nc3c2C(C)C)cn2ncnc2c1C [Example 143]
39 | 1.2 | > 50000 | 8.4 | Cc1c(-c2[nH]c3ccc(N4CCN(CC(=O)N(C)C)CC4)nc3c2C(C)C)cn2ncnc2c1C [Example 144]
40 | 0.49 | 8200 | 1.5 | Cc1c(-c2[nH]c3ccc(N4CCN(C(=O)CN5CCCC5)CC4)nc3c2C(C)C)cn2ncnc2c1C [Example 145]
41 | 2.5 | 12900 | 5.6 | Cc1c(-c2[nH]c3ccc(N4CCN(C(=O)CN5CCC5)CC4)nc3c2C(C)C)cn2ncnc2c1C [Example 146]
42 | 0.26 | 18700 | 5 | Cc1c(-c2[nH]c3ccc(N4CCN(CCCS(C)(=O)=O)CC4)nc3c2C(C)C)cn2ncnc2c1C [Example 147]
43 | 16 | > 50000 | 97 | Cc1c(-c2[nH]c3ccc(N4CCN(CCC#N)CC4)nc3c2C(C)C)cn2ncnc2c1C [Example 148]
44 | 0.4 | 19500 | 9.3 | Cc1c(-c2[nH]c3ccc(N4CCN(CCC(N)=O)CC4)nc3c2C(C)C)cn2ncnc2c1C [Example 149]
45 | 2.7 | > 50000 | 12 | Cc1c(-c2[nH]c3ccc(N4CCNC(=O)C4)nc3c2C(C)C)cn2ncnc2c1C [Example 150]
46 | 1.2 | 12000 | 1.2 | Cc1c(-c2[nH]c3ccc(N4CCN(S(=O)(=O)CCN(C)C)CC4)nc3c2C(C)C)cn2ncnc2c1C [Example 151]
47 | 600 | > 50000 | 1920 | Cc1c(-c2[nH]c3ccc(N4CCN(CCN5CCOCC5)C(=O)C4)nc3c2C(C)C)cn2ncnc2c1C [Example 154]
48 | 56 | > 50000 | 401 | Cc1c(-c2[nH]c3ccc(N4CCN(CCN5CCOCC5)C(=O)C4)nc3c2C(C)C)cn2ncnc2c1C [Example 155]
49 | 0.79 | 6750 | 1.5 | Cc1c(-c2[nH]c3ccc(N4CCN(C(=O)CNC5CCC5)CC4)nc3c2C(C)C)cn2ncnc2c1C [Example 156]

Row | SMILES | IC50 (human TLR8) [nM] | IC50 (human TLR9) [nM] | IC50 (human TLR7) [nM]
50 | Cc1c(-c2[nH]c3ccc(N4CCNC[C@@H]4C)nc3c2C(C)C)cn2ncnc2c1C [Example 152] | 1.6 | 5880 | 2.7
51 | Cc1c(-c2[nH]c3ccc(N4CCNC[C@H]4C)nc3c2C(C)C)cn2ncnc2c1C [Example 153] | 1.6 | 7150 | 0.87
